For orientation: inhibition means the drop in the measured response relative to a control, in per cent. Broadly, the IC50 is the concentration needed to halve the response being measured.

This is an account of results in patent US7951814B2, “Quinazolinedione derivatives as TRPA1 modulators” (Glenmark Pharmaceuticals, S.A., priority 2008, dated 2011).

Where only a bound is given, the exact number is not on record here.

The target of this assay is T1, Human TRPA1 expressing CHO cells (Homo sapiens, UniProt O75762).
T1 construct: expressed in transfected cells; host or cells: CHO cells (under G-418 selection)
T1 sequence (O75762 whole entry): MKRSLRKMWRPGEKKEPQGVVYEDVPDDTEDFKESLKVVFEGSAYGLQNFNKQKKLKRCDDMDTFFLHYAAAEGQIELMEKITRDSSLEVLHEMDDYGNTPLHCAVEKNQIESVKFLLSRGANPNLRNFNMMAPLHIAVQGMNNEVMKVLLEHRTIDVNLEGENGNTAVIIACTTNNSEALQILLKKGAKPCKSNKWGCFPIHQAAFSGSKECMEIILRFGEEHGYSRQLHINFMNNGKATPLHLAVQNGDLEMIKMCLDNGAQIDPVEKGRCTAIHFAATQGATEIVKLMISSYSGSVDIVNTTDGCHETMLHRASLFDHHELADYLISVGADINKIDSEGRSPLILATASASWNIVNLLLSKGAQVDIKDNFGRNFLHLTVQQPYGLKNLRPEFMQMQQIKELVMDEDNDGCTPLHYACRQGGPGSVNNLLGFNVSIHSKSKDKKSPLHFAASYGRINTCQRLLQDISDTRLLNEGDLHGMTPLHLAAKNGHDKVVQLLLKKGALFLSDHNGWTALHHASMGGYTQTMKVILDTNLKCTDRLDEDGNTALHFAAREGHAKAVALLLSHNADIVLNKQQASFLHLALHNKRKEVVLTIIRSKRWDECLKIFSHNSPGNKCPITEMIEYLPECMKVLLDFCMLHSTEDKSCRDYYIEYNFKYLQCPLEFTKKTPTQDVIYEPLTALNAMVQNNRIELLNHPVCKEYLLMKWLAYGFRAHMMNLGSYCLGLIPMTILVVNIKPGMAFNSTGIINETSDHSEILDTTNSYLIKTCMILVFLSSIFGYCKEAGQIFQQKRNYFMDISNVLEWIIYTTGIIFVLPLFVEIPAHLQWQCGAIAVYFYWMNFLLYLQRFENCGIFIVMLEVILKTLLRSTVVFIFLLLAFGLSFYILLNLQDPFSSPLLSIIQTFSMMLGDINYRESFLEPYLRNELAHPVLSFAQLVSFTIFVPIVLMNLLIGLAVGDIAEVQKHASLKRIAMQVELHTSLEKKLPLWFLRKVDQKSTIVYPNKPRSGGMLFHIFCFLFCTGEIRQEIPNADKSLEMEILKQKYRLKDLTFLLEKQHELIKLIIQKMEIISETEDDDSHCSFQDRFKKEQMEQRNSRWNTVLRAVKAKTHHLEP
Briefly: 45Calcium uptake assay: inhibition of AITC induced cellular uptake of radioactive calcium. To be noted: AITC 30 μM, human TRPA1 CHO cells; for inhibition at 1 µM: 1.0 μM test compound, read-out: Percentage inhibition at 1.0 μM; for inhibition at 10 µM: 10.0 μM test compound, read-out: Percentage inhibition at 10.0 μM; for IC50: read-out: IC50 value (range). Type of assay: cell-based. The method, then:
The illustrative examples of the present invention are screened for TRPA1 activity according to a modified procedure described in (a) Tóth, A. et al. Life Sciences (2003), 73, 487-498. ([…]. et al. Proc. Natl. Acad. Sci. U.S.A., (2007), 104, 13525-13530. The screening of the compounds can be carried out by other methods and procedures known to persons skilled in the art. Screening for TRPA1 Antagonist Using the ^45Calcium Uptake Assay The inhibition of TRPA1 receptor activation was measured as inhibition of allyl isothiocyanate (AITC) induced cellular uptake of radioactive calcium. […] Final concentration of DMSO in the reaction was 0.5% (v/v). […] Cells were seeded 24 h prior to the assay in 96 well plates so as to get 50,000 cells per well on the day of experiment. Cells were treated with test compounds for 10 min followed by addition of AITC at a final concentration of 30 μM and 5 μCi/ml ^45Ca^+2 for 3 min. […] Radioactivity in the lysate was measured in Packard Top count after addition of liquid scintillant. Concentration response curves were plotted as a % of maximal response obtained in the absence of test antagonist. IC50 value was calculated from concentration response curve by nonlinear regression analysis using GraphPad PRISM software.

As to `Cn1c(=O)c2c(CC(=O)Nc3ccc(-c4ccc(Br)cc4)cc3)cccc2n(C)c1=O` [Example 2, N1-[4-(4-Bromophenyl)phenyl]-2-(1,3-dimethyl-2,4-dioxo-1,2,3,4-tetrahydro-5-quinazolinyl)acetamide], the inhibition at 1 µM is 25.3% and the inhibition at 10 µM was 50.8%.

With `Cc1ccc(Oc2ccc(NC(=O)Cc3cccc4c3c(=O)n(C)c(=O)n4C)cc2)cc1` [Example 3, N1-[4-(4-Methylphenoxy)phenyl]-2-(1,3-dimethyl-2,4-dioxo-1,2,3,4-tetrahydro-5-quinazolinyl)acetamide], the inhibition at 1 µM turned out to be 7.98% and the inhibition at 10 µM was 31.6%.

For `Cn1c(=O)c2c(CC(=O)Nc3cccc(-c4ccc(Cl)cc4)n3)cccc2n(C)c1=O` [Example 4, N1-[6-(4-chlorophenyl)-2-pyridyl]-2-(1,3-dimethyl-2,4-dioxo-1,2,3,4-tetrahydro-5-quinazolinyl)acetamide], the inhibition at 1 µM came to 60.7% and the inhibition at 10 µM is 95.2%.

As to `Cn1c(=O)c2c(CC(=O)Nc3ccc(-c4ccc(Cl)cc4)cn3)cccc2n(C)c1=O` [Example 5, N1-[5-(4-chlorophenyl)-2-pyridyl]-2-(1,3-dimethyl-2,4-dioxo-1,2,3,4-tetrahydro-5-quinazolinyl)acetamide], the inhibition at 1 µM was 52.2% and the inhibition at 10 µM turned out to be 71.5%.

With `Cn1c(=O)c2c(CC(=O)Nc3cccc(-c4ccc(C(F)(F)F)cc4)n3)cccc2n(C)c1=O` [Example 6, N1-[6-(4-Trifluoromethylphenyl)-2-pyridyl]-2-(1,3-dimethyl-2,4-dioxo-1,2,3,4-tetrahydro-5-quinazolinyl)acetamide], the inhibition at 1 µM came to 71.3% and the inhibition at 10 µM is 88.2%.

With `Cn1c(=O)c2c(CC(=O)Nc3nc(C4CCCCC4)cs3)cccc2n(C)c1=O` [Example 7, N1-[4-(4-Cyclohexyl)-1,3-thiazol-2yl]-2-(1,3-dimethyl-2,4-dioxo-1,2,3,4-tetrahydro-5-quinazolinyl)acetamide], the inhibition at 1 µM came out at 62.2% and the inhibition at 10 µM is 60.5%.

Take `Cn1c(=O)c2c(CC(=O)Nc3nc(-c4ccccc4)cs3)cccc2n(C)c1=O` [Example 8, N1-[4-phenyl-1,3-thiazol-2-yl]-2-(1,3-dimethyl-2,4-dioxo-1,2,3,4-tetrahydro-5-quinazolinyl)acetamide]: the inhibition at 1 µM turned out to be 52.9% and the inhibition at 10 µM was 79.9%.

Take `Cn1c(=O)c2c(CC(=O)Nc3nc(-c4ccc(F)cc4)cs3)cccc2n(C)c1=O` [Example 9, N1-[4-(4-Fluorophenyl)-1,3-thiazol-2yl]-2-(1,3-dimethyl-2,4-dioxo-1,2,3,4-tetrahydro-5-quinazolinyl)acetamide]: the inhibition at 1 µM was determined as 30.8% and the inhibition at 10 µM worked out at 43.8%.

Take `Cn1c(=O)c2c(CC(=O)Nc3nc(-c4cccc(Cl)c4)cs3)cccc2n(C)c1=O` [Example 11, N1-[4-(3-Chlorophenyl)-1,3-thiazol-2yl]-2-(1,3-dimethyl-2,4-dioxo-1,2,3,4-tetrahydro-5-quinazolinyl)acetamide]: the inhibition at 1 µM amounted to 95.5%, the inhibition at 10 µM came to 99.1% and the IC50 is greater than 100 nM.

`Cn1c(=O)c2c(CC(=O)Nc3nc(-c4ccc(Br)cc4)cs3)cccc2n(C)c1=O` [Example 12]: the inhibition at 1 µM was 98.7%, the inhibition at 10 µM was determined as 99.2% and the IC50 lay within 50.1 to 100 nM.

With `Cn1c(=O)c2c(CC(=O)Nc3nc(-c4ccc(I)cc4)cs3)cccc2n(C)c1=O` [Example 13, N1-[4-(4-Iodophenyl)-1,3-thiazol-2yl]-2-(1,3-dimethyl-2,4-dioxo-1,2,3,4-tetrahydro-5-quinazolinyl)acetamide], the inhibition at 1 µM came to 79.2%, the inhibition at 10 µM was determined as 94.7% and the IC50 is 50.1 to 100 nM.

Take `Cn1c(=O)c2c(CC(=O)Nc3nc(-c4ccc(C(F)(F)F)cc4)cs3)cccc2n(C)c1=O` [Example 14, N1-[4-(4-Trifluromethylphenyl)-1,3-thiazol-2yl]-2-(1,3-dimethyl-2,4-dioxo-1,2,3,4-tetrahydro-5-quinazolinyl)acetamide]: the inhibition at 1 µM worked out at 97.9%, the inhibition at 10 µM turned out to be 99.1% and the IC50 is less than 50 nM.

Take `Cn1c(=O)c2c(CC(=O)Nc3nc(-c4cccc(OC(F)(F)F)c4)cs3)cccc2n(C)c1=O` [Example 16, N1-[4-(3-Trifluoromethoxyphenyl)-1,3-thiazol-2-yl]-2-(1,3-dimethyl-2,4-dioxo-1,2,3,4-tetrahydro-5-quinazolinyl)acetamide]: the inhibition at 1 µM worked out at 95.6%, the inhibition at 10 µM came out at 99.7% and the IC50 is less than 50 nM.

On to `COc1ccc(-c2csc(NC(=O)Cc3cccc4c3c(=O)n(C)c(=O)n4C)n2)cc1` [Example 17, N1-[4-(4-Methoxyphenyl)-1,3-thiazol-2-yl]-2-(1,3-dimethyl-2,4-dioxo-1,2,3,4-tetrahydro-5-quinazolinyl)acetamide], for which the inhibition at 1 µM is 30% and the inhibition at 10 µM stood at 75.9%.

For `Cn1c(=O)c2c(CC(=O)Nc3nc(-c4ccc(C5CCCCC5)cc4)cs3)cccc2n(C)c1=O` [Example 18, N1-[4-(4-Cyclohexylphenyl)-1,3-thiazol-2yl]-2-(1,3-dimethyl-2,4-dioxo-1,2,3,4-tetrahydro-5-quinazolinyl)acetamide], the inhibition at 1 µM was determined as 79.3%, the inhibition at 10 µM came out at 88.3% and the concentration for half-maximal inhibition (IC50) is less than 50 nM.

In the case of `CC(C)CCOc1ccc(-c2csc(NC(=O)Cc3cccc4c3c(=O)n(C)c(=O)n4C)n2)cc1` [Example 19, N1-[4-(4-(3-Methylbutoxy)phenyl)-1,3-thiazol-2-yl]-2-(1,3-dimethyl-2,4-dioxo-1,2,3,4-tetrahydro-5-quinazolinyl)acetamide], the inhibition at 1 µM came to 93%, the inhibition at 10 µM amounted to 97.9% and the IC50 fell in the range of 50.1 to 100 nM.

For the molecule `Cn1c(=O)c2c(CC(=O)Nc3nc(-c4ccc(C(C)(C)C)cc4)cs3)cccc2n(C)c1=O` [Example 20, N1-[4-(4-tert-Butylphenyl)-1,3-thiazol-2-yl]-2-(1,3-dimethyl-2,4-dioxo-1,2,3,4-tetrahydro-5-quinazolinyl)acetamide], the inhibition at 1 µM is 98.9%, the inhibition at 10 µM was 99.8% and the 50% inhibitory concentration (IC50) lay in the range of 50.1 to 100 nM.

As to `CC(C)Cc1ccc(-c2csc(NC(=O)Cc3cccc4c3c(=O)n(C)c(=O)n4C)n2)cc1` [Example 21], the inhibition at 1 µM was 95.7%, the inhibition at 10 µM came to 99.7% and the IC50 is less than 50 nM.

As to `CC(C)c1ccc(-c2csc(NC(=O)Cc3cccc4c3c(=O)n(C)c(=O)n4C)n2)cc1` [Example 22, N1-[4-(4-isopropylphenyl)-1,3-thiazol-2-yl]-2-(1,3-dimethyl-2,4-dioxo-1,2,3,4-tetrahydro-5-quinazolinyl)acetamide], the inhibition at 1 µM stood at 95.3%, the inhibition at 10 µM was 98% and the 50% inhibitory concentration (IC50) was in the range of 50.1 to 100 nM.

Turning to `CCc1ccc(-c2csc(NC(=O)Cc3cccc4c3c(=O)n(C)c(=O)n4C)n2)cc1` [Example 23], the inhibition at 1 µM came out at 96.2%, the inhibition at 10 µM is 96.9% and the IC50 lay within 50.1 to 100 nM.

Take `Cc1ccc(-c2csc(NC(=O)Cc3cccc4c3c(=O)n(C)c(=O)n4C)n2)cc1` [Example 24, N1-[4-(4-Methylphenyl)-1,3-thiazol-2yl]-2-(1,3-dimethyl-2,4-dioxo-1,2,3,4-tetrahydro-5-quinazolinyl)acetamide]: the inhibition at 1 µM was 83.9%, the inhibition at 10 µM turned out to be 96.8% and the half-inhibitory concentration (IC50) fell in the range of 50.1 to 100 nM.

Turning to `CCn1c(=O)c2c(CC(=O)Nc3nc(-c4ccc(Cl)cc4)cs3)cccc2n(CC)c1=O` [Example 25, N1-[4-(4-Chlorophenyl)-1,3-thiazol-2-yl]-2-(1,3-diethyl-2,4-dioxo-1,2,3,4-tetrahydro-5-quinazolinyl)acetamide], the inhibition at 1 µM came to 20.4% and the inhibition at 10 µM stood at 30.8%.

For the molecule `CCCn1c(=O)c2c(CC(=O)Nc3nc(-c4cccc(C(F)(F)F)c4)cs3)cccc2n(CCC)c1=O` [Example 26, N1-[4-(3-Trifluoromethylphenyl)-1,3-thiazo-2-yl]-2-(1,3-dipropyl-2,4-dioxo-1,2,3,4-tetrahydro-5-quinazolinyl)acetamide], the inhibition at 1 µM is 13.6% and the inhibition at 10 µM came out at 5.39%.

In the case of `Cn1c(=O)n(CC2CC2)c(=O)c2c(CC(=O)Nc3nc(-c4ccc(C(C)(C)C)cc4)cs3)cccc21` [Example 27, N1-[4-(4-tert-Butylphenyl)-1,3-thiazol-2-yl]-2-(1-methyl-3-cyclopropylmethyl-2,4-dioxo-1,2,3,4-tetrahydro-5-quinazolinyl)acetamide], the inhibition at 1 µM amounted to 17.2% and the inhibition at 10 µM was found to be 29.6%.

In the case of `CCOC(=O)n1c(=O)[nH]c2cccc(CC(=O)Nc3nc(-c4ccc(Cl)cc4)cs3)c2c1=O` [Example 28], the inhibition at 1 µM worked out at 2.8% and the inhibition at 10 µM was 6.54%.
